In a compilation of properties of binary mixtures (doi:10.1016/j.molliq.2018.09.007):

Assay: xn = mol fraction of the nth substance listed
Conditions: 100 kPa

CN(C)C=O + CC[n+]1ccn(C)c1.O=S(=O)([O-])C(F)(F)F
x1 = 1
Conditions | speed of sound [m/s] | viscosity [mPa·s]
303.15 K | 1449.1 | 0.77
308.15 K | 1435.2 | 0.72
313.15 K | 1421.2 | 0.69
318.15 K | 1407.2 | 0.65
323.15 K | 1393.6 | 0.62

OCCO + CC[n+]1ccn(C)c1.O=S(=O)([O-])C(F)(F)F
x1 = 1
Conditions | speed of sound [m/s] | viscosity [mPa·s]
298.15 K | 1655 | 16.39
303.15 K | 1643.2 | 13.49
313.15 K | 1619.7 | 9.34
323.15 K | 1596.1 | 6.75

CC[n+]1ccn(C)c1.O=S(=O)([O-])C(F)(F)F + CN(C)C=O
Conditions | speed of sound [m/s] | viscosity [mPa·s]
298.15 K, x2 = 0.0917 | 1438.8 | 36.96
298.15 K, x2 = 0.2995 | 1444 | 20.94
298.15 K, x2 = 0.406 | 1446 | 14.56
298.15 K, x2 = 0.5094 | 1448.4 | 8.77
298.15 K, x2 = 0.5976 | 1450.6 | 6.17
298.15 K, x2 = 0.6947 | 1453.4 | 3.45
298.15 K, x2 = 0.7981 | 1457.5 | 2.59
298.15 K, x2 = 0.8957 | 1460.7 | 1.54
303.15 K, x2 = 0.0917 | 1427.6 | 31.13
303.15 K, x2 = 0.1933 | 1428.8 | 24.16
303.15 K, x2 = 0.2995 | 1430.7 | 17.86
303.15 K, x2 = 0.5094 | 1434.6 | 7.75
303.15 K, x2 = 0.5976 | 1436.5 | 5.52
303.15 K, x2 = 0.6947 | 1439.7 | 3.21
303.15 K, x2 = 0.7981 | 1443.5 | 2.38
303.15 K, x2 = 0.8957 | 1446.8 | 1.44
308.15 K, x2 = 0.0917 | 1416 | 26.42
308.15 K, x2 = 0.1933 | 1417.8 | 20.62
308.15 K, x2 = 0.2995 | 1419.1 | 15.36
308.15 K, x2 = 0.5094 | 1422.7 | 6.9
308.15 K, x2 = 0.5976 | 1424.4 | 4.98
308.15 K, x2 = 0.6947 | 1426.9 | 2.99
308.15 K, x2 = 0.7981 | 1429.7 | 2.19
308.15 K, x2 = 0.8957 | 1432.8 | 1.34
313.15 K, x2 = 0.0917 | 1404.6 | 22.67
313.15 K, x2 = 0.1933 | 1406.5 | 17.78
313.15 K, x2 = 0.2995 | 1408 | 13.34
313.15 K, x2 = 0.406 | 1409.7 | 9.57
313.15 K, x2 = 0.5094 | 1411 | 6.18
313.15 K, x2 = 0.6947 | 1414.6 | 2.78
313.15 K, x2 = 0.8957 | 1419.2 | 1.25
318.15 K, x2 = 0.406 | 1398.7 | 8.46
318.15 K, x2 = 0.5094 | 1399.7 | 5.57
318.15 K, x2 = 0.5976 | 1400.4 | 4.1
318.15 K, x2 = 0.7981 | 1403.5 | 1.88
318.15 K, x2 = 0.8957 | 1405.3 | 1.18
323.15 K, x2 = 0.0917 | 1382.3 | 17.12
323.15 K, x2 = 0.1933 | 1384 | 13.56
323.15 K, x2 = 0.2995 | 1386 | 10.31
323.15 K, x2 = 0.406 | 1387.4 | 7.53
323.15 K, x2 = 0.5094 | 1388 | 5.05
323.15 K, x2 = 0.5976 | 1388.9 | 3.75
323.15 K, x2 = 0.7981 | 1390.6 | 1.75
323.15 K, x2 = 0.8957 | 1392.1 | 1.11

CC[n+]1ccn(C)c1.O=S(=O)([O-])C(F)(F)F + OCCO
Conditions | speed of sound [m/s] | viscosity [mPa·s]
298.15 K, x2 = 0.0943 | 1446 | 36.77
298.15 K, x2 = 0.2021 | 1453.2 | 29.22
298.15 K, x2 = 0.2937 | 1457.1 | 24.13
298.15 K, x2 = 0.408 | 1464.6 | 20.68
298.15 K, x2 = 0.5013 | 1473.4 | 18.72
298.15 K, x2 = 0.6019 | 1488.5 | 17.52
298.15 K, x2 = 0.6917 | 1510.9 | 16.97
298.15 K, x2 = 0.8964 | 1586.6 | 16.51
303.15 K, x2 = 0.2021 | 1442.1 | 24.77
303.15 K, x2 = 0.2937 | 1445.9 | 20.6
303.15 K, x2 = 0.408 | 1453.3 | 17.93
303.15 K, x2 = 0.5013 | 1462.1 | 16.38
303.15 K, x2 = 0.6019 | 1477.2 | 15.41
303.15 K, x2 = 0.6917 | 1499.5 | 14.89
303.15 K, x2 = 0.798 | 1532.6 | 14.39
303.15 K, x2 = 0.8964 | 1575.1 | 13.74
308.15 K, x2 = 0.0943 | 1423.9 | 26.23
308.15 K, x2 = 0.2021 | 1430.9 | 21.17
308.15 K, x2 = 0.2937 | 1434.8 | 17.74
308.15 K, x2 = 0.408 | 1442.2 | 15.7
308.15 K, x2 = 0.5013 | 1451 | 14.49
308.15 K, x2 = 0.6917 | 1488.2 | 13.23
308.15 K, x2 = 0.798 | 1521.5 | 12.63
313.15 K, x2 = 0.0943 | 1412.8 | 22.47
313.15 K, x2 = 0.2021 | 1419.9 | 18.26
313.15 K, x2 = 0.2937 | 1423.8 | 15.41
313.15 K, x2 = 0.5013 | 1439.9 | 12.93
313.15 K, x2 = 0.6019 | 1454.8 | 12.31
313.15 K, x2 = 0.6917 | 1477 | 11.88
313.15 K, x2 = 0.798 | 1509.9 | 11.22
313.15 K, x2 = 0.8964 | 1552.1 | 10.22
318.15 K, x2 = 0.2021 | 1409.1 | 15.91
318.15 K, x2 = 0.2937 | 1412.9 | 13.52
318.15 K, x2 = 0.408 | 1420.2 | 12.38
318.15 K, x2 = 0.5013 | 1428.8 | 11.66
318.15 K, x2 = 0.6019 | 1443.7 | 11.17
318.15 K, x2 = 0.6917 | 1465.7 | 10.76
318.15 K, x2 = 0.798 | 1498.5 | 10.07
318.15 K, x2 = 0.8964 | 1540.6 | 8.97
323.15 K, x2 = 0.2937 | 1402 | 11.94
323.15 K, x2 = 0.5013 | 1417.9 | 10.58
323.15 K, x2 = 0.6019 | 1432.7 | 10.2
323.15 K, x2 = 0.6917 | 1454.6 | 9.84
323.15 K, x2 = 0.798 | 1487.2 | 9.13
323.15 K, x2 = 0.8964 | 1529.1 | 7.95
